One molecule from ChEMBL document CHEMBL3886262, “Azetidine compounds, compositions and methods of use” (2015) can be followed below.

This experiment concerns the target T1, Bifunctional epoxide hydrolase 2 (Homo sapiens, UniProt P34913).
T1 sequence (P34913 whole entry): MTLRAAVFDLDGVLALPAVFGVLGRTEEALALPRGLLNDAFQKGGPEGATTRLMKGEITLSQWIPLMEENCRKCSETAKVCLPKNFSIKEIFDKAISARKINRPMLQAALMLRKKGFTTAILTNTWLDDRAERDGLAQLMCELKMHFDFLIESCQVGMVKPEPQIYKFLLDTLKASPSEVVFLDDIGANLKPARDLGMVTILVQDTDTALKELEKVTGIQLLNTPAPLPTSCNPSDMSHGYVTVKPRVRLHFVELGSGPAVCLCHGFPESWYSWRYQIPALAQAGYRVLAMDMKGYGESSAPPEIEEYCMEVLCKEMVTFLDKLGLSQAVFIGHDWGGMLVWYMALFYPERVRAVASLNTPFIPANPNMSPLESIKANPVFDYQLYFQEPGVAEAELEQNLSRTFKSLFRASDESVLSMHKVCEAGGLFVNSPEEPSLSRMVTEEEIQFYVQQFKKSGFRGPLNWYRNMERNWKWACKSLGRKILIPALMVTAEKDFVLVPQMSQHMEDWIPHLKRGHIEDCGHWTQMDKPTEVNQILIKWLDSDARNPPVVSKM
Briefly: Enzyme Assay: Test compounds (1.6 mM stock in DMSO) were diluted 3 fold in series in DMSO and 0.8 microliters per well were added into 384-well NBS microplates (Corning). Resorufin epoxide substrate (20 uM stock in DMSO) was diluted to 5 μM with Assay Buffer (25 mM bis-Tris-HCl, pH 7.0, 1 mM DTT and 0.2 mg/ml BSA) and 8 microliters per well were added to the microplates. Thirty two microliters per well of 3.6 nM soluble epoxide hydrolase in Assay Buffer was then added. The samples were incubated at room temperature and assay signals were monitored by reading excitation at 530 nm and emission fluorescence at 590 nm on a PlateVision (Zeiss) reader every 2 minutes for 8 times.

What is called IC50 is the midpoint of a concentration-inhibition curve. Higher therefore signals weaker potency. `O=C(NCc1ccc(Cl)cc1Cl)N1CC2(C1)CN(S(=O)(=O)c1ccccc1)C2` had an IC50 of 79 nM.
